A short description of test [1]: Inhibition of recombinant GMPPNP-loaded KRAS G12D mutant/recombinant GST-tagged RAF1 RBD (unknown origin) interaction preincubated for 20 mins followed by RAF1 RBD addition and measured after 3 hrs by HTRF assay. The arrangement: species or system Homo sapiens. (In TR-FRET formats the signal depends on donor and acceptor labels being close together.)
The nature of test [2]: Inhibition of recombinant GDP-loaded KRAS G12D mutant/recombinant SOS (unknown origin) interaction preincubated for 20 mins followed by SOS addition and measured after 30 mins by HTRF assay. The arrangement: species or system Homo sapiens.

Among the data in ChEMBL document CHEMBL5532721, “Novel KRAS Inhibitors for Treating Non-Small-Cell Lung Cancer” (ACS Med Chem Lett, 2024) are IC50 values, retold here.

A word on the IC50: it is the point on the concentration scale where inhibition reaches its midpoint.

For `C#Cc1c(F)ccc2cc(O)cc(-c3ncc4c(N5CCCC(C#N)C5)nc(OC[C@@]56CCCN5C[C@H](F)C6)nc4c3F)c12` (some centres not stated), the IC50 in test [1] and in test [2] was 2 nM throughout.

For the molecule `C#Cc1c(F)ccc2cc(O)cc(-c3ncc4c(N5CCOCC(CC#N)C5)nc(OC[C@]56CCC[C@H]5N(C)CCC6)nc4c3F)c12` (some centres not stated), the IC50 in test [1] and in test [2] was 2 nM throughout.

`C#Cc1c(F)ccc2cc(O)cc(-c3ncc4c(N5CCCOCC5)nc(OC[C@]56CCC[C@H]5N(CC)CCC6)nc4c3F)c12`: the IC50 in test [1] came to 6 nM; in test [2] it was 2 nM.

Take `C#Cc1c(F)ccc2cc(O)cc(-c3ncc4c(N5CCCC(O)(C(F)(F)F)C5)nc(OC[C@]56CCC[C@H]5N(C)CCC6)nc4c3F)c12` (some centres not stated): the IC50 in test [1] was 3 nM; in test [2], 2 nM.

`C#Cc1c(F)ccc2cc(O)cc(-c3ncc4c(N5CCOCC(CO)C5)nc(OC[C@]56CCC[C@H]5N(C)CCC6)nc4c3F)c12` (some centres not stated): the results for the IC50 in test [1] and in test [2] were 3 nM and 5 nM, respectively.

With `C#Cc1c(F)ccc2cc(O)cc(-c3ccc4c(N5C[C@@H]6C[C@H]5C(=O)N6)nc(OC[C@]56CCC[C@H]5N(C)CCC6)nc4c3F)c12`, the IC50 is 3 nM in test [1] and 6 nM in test [2].
